Activity calls are given as the source filed them. The calls are words filed in the database; no cut-off is given here.
Assays:
Cannabinoid receptor 1 [1] = target: T1, Cannabinoid receptor 1 (Rattus norvegicus, UniProt P20272); test: Displacement of [3H]-CP-55,940 from CB1R in rat brain membranes measured by radioligand based competition binding assay; format: cell membranes, Membrane
Cannabinoid receptor 1 [2] = target: T1, Cannabinoid receptor 1; test: Agonist activity at rat CB1 receptor expressed in HEK293 cells assessed as inhibition of forskolin-induced cAMP accumulation measured for 60 mins by Lance Ultra cAMP assay; format: functional, cell-based
[3] = target: Cannabinoid receptor 1 (Rattus norvegicus) (UniProt P20272); test: Agonist activity at rat CB1 receptor expressed in HEK293 cells assessed as inhibition of forskolin-induced cAMP accumulation measured for 60 mins by Lance Ultra cAMP assay relative to control; format: functional, cell-based; details: filed as agonist
Chain of Cannabinoid receptor 1 (Rattus norvegicus) (P20272 whole entry): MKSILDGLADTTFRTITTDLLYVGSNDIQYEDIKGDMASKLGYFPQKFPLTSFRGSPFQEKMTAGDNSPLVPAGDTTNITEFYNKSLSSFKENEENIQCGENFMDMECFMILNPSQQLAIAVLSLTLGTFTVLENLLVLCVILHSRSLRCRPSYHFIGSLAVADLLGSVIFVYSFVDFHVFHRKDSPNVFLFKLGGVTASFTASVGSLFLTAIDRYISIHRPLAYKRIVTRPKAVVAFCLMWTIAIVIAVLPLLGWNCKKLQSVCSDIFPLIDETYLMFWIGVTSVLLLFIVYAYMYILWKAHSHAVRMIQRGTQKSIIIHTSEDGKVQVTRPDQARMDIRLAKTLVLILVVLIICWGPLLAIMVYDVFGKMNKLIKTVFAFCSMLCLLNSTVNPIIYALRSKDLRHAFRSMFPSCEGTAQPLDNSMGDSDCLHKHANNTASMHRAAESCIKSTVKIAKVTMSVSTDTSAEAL

Rattus norvegicus [4] = test: Antinociceptive activity against female Sprague-Dawley rat model of thermal-induced nociception at 0.01 to 10 mg/kg measured after 30 to 360 mins by tail flick test; format: functional; details: dose 0.01-10 mg/kg, time 30-360 min
Rattus norvegicus [5] = test: Hypothermic effect in female Sprague-Dawley rat model assessed as reduction in body temperature at 10 to 30 mg/kg after 30 to 360 mins; format: functional; details: dose 10-30 mg/kg; time 30-360 min
Cannabinoid receptor 1 [6] = target: T2, Cannabinoid receptor 1 (Homo sapiens, UniProt P21554); test: Agonist activity at human CB1 receptor expressed in CHO-K1 cells assessed as assessed as induction of beta-arrestin 2 recruitment measured for 90 mins by PathHunter assay relative to control; format: functional, cell-based; details: filed as agonist
T2 sequence (P21554 whole entry): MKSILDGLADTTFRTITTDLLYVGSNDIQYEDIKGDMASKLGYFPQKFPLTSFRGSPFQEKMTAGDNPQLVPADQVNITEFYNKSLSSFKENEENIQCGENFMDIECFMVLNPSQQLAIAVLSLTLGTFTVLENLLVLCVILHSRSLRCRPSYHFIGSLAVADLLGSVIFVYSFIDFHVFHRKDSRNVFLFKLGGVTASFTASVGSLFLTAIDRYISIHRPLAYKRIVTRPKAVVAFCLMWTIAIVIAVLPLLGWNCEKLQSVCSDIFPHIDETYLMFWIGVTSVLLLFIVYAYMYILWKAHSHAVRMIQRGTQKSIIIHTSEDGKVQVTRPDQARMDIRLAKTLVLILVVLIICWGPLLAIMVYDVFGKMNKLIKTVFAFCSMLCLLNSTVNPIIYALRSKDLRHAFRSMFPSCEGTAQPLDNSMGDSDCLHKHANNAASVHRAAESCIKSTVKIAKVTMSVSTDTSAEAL

Cannabinoid receptor 1 [7] = target: T2, Cannabinoid receptor 1; test: Agonist activity at N-terminal 3HA-tagged human CB1 receptor expressed in CHO cells assessed as inhibition of forskolin-induced cAMP accumulation measured for 30 mins by FRET assay relative to control; format: functional, cell-based; details: filed as agonist
Rattus norvegicus [8] = test: Hypothermic effect in female Sprague-Dawley rat model assessed as reduction in body temperature at 0.01 to 10 mg/kg measured after 30 to 360 mins; format: functional; details: dose 0.01-10 mg/kg; time 30-360 min
Rattus norvegicus [9] = test: Hypothermic effect in female Sprague-Dawley rat model assessed as reduction in body temperature at 0.3 to 1 mg/kg after 90 mins; format: functional, organism-based; details: dose 0.3-1 mg/kg
Cannabinoid receptor 1 [10] = target: T2, Cannabinoid receptor 1; test: Agonist activity at N-terminal 3HA-tagged human CB1 receptor expressed in CHO cells assessed as inhibition of forskolin-induced cAMP accumulation measured for 30 mins by FRET assay; format: functional, cell-based
Cannabinoid receptor 1 [11] = target: T2, Cannabinoid receptor 1; test: Agonist activity at human CB1 receptor expressed in CHO-K1 cells assessed as assessed as induction of beta-arrestin 2 recruitment measured for 90 mins by PathHunter assay; format: functional, cell-based
Rattus norvegicus [12] = test: Hypothermic effect in female Sprague-Dawley rat model assessed as reduction in body temperature at 0.01 to 10 mg/kg measured as ED50 after 30 to 360 mins; format: functional; details: dose 0.01-10 mg/kg, time 30-360 min
Rattus norvegicus [13] = test: Antinociceptive activity against female Sprague-Dawley rat model of thermal-induced nociception at 0.3 to 1 mg/kg assessed as increase in tail flick latency measured after 30 to 360 mins by tail flick test; format: functional, organism-based; details: dose 0.3-1 mg/kg, time 30-360 min

T1 sequence (P20272 whole entry): as the sequence (P20272 whole entry) above

Row | Structure (SMILES) | Ki (Cannabinoid receptor 1 [1]) [nM] | further results
1 | CC1(C)Oc2cc(C3(CCCCCCN4CCOCC4)CCC3)cc(O)c2[C@@H]2C[C@H](O)CC[C@H]21 | 43.9 | 
2 | CC1(C)Oc2cc(C3(CCCCN=[N+]=[N-])CCC3)cc(O)c2[C@@H]2C[C@H](O)CC[C@H]21 | 0.57 | 
3 | CC1(C)Oc2cc(C3(CCCCCC#N)CCC3)cc(O)c2[C@@H]2C[C@@H](O)CC[C@H]21 | 0.61 | EC50 (Cannabinoid receptor 1 [2]): 2 nM; Emax [3]: 97%
4 | CCCCCc1cc(O)c2c(c1)OC(C)(C)[C@@H]1CCC(C)=C[C@@H]21 [DRONABINOL] |  | ED50 (Rattus norvegicus [4]): 1.3 mg/kg; T (Rattus norvegicus [5]): 2.8 °C
5 | CC1(C)Oc2cc(C3(CCCCCN=[N+]=[N-])CCC3)cc(O)c2[C@@H]2CC(=O)CC[C@H]21 | 0.66 | 
6 | CC1(C)Oc2cc(C3(CCCCCC#N)CCC3)cc(O)c2[C@@H]2CC(=O)CC[C@H]21 | 0.55 | Emax (Cannabinoid receptor 1 [6]): 93%; Emax (Cannabinoid receptor 1 [7]): 94%; T (Rattus norvegicus [8]): 6 °C; EC50 (Cannabinoid receptor 1 [2]): 8.6 nM; ED50 (Rattus norvegicus [4]): 0.14 mg/kg; Emax [3]: 126%; Activity (Rattus norvegicus [9]): Active; EC50 (Cannabinoid receptor 1 [10]): 1.4 nM; EC50 (Cannabinoid receptor 1 [11]): 7.5 nM; ED50 (Rattus norvegicus [12]): 0.16 mg/kg; Activity (Rattus norvegicus [13]): Active
7 | CC1(C)Oc2cc(C3(CCCCN4CCOCC4)CCC3)cc(O)c2[C@@H]2C[C@H](O)CC[C@H]21 | 1.1 | 
8 | CC1(C)Oc2cc(C3(CCCCCCBr)CCC3)cc(O)c2[C@@H]2CC(=O)CC[C@H]21 | 0.46 | 
9 | CC1(C)Oc2cc(C3(CCCCCCBr)CCC3)cc(O)c2[C@@H]2C[C@H](O)CC[C@H]21 | 0.38 | 
10 | CC1(C)Oc2cc(C3(CCCCN=C=S)CCC3)cc(O)c2[C@@H]2CC(=O)CC[C@H]21 | 8.2 | 
11 | CC1(C)Oc2cc(C3(CCCCN4CCOCC4)CCC3)cc(O)c2[C@@H]2CC(=O)CC[C@H]21 | 4 | 
12 | CC1(C)Oc2cc(C3(CCCCC#N)CCC3)cc(O)c2[C@@H]2C[C@@H](O)CC[C@H]21 | 1.9 | 
13 | CC1(C)Oc2cc(C3(CCCCBr)CCC3)cc(O)c2[C@@H]2C[C@H](O)CC[C@H]21 | 1.2 | 
14 | CC1(C)Oc2cc(C3(CCCCBr)CCC3)cc(O)c2[C@@H]2C[C@@H](O)CC[C@H]21 | 1.11 | 
15 | CC1(C)Oc2cc(C3(CCCCC#N)CCC3)cc(O)c2[C@@H]2CC(=O)CC[C@H]21 | 3.4 | 
16 | CC1(C)Oc2cc(C3(CCCCCN4CCOCC4)CCC3)cc(O)c2[C@@H]2CC(=O)CC[C@H]21 | 1.9 | 
17 | CC1(C)Oc2cc(C3(CCCCCN=C=S)CCC3)cc(O)c2[C@@H]2CC(=O)CC[C@H]21 | 4.91 | 
18 | CC1(C)Oc2cc(C3(CCCBr)CCC3)cc(O)c2[C@@H]2CC(=O)CC[C@H]21 | 45.7 | 
19 | CC1(C)Oc2cc(C3(CCCCBr)CCC3)cc(O)c2[C@@H]2CC(=O)CC[C@H]21 | 18 | 
20 | CCCCCCC(C)(C)c1cc(O)c2c(c1)OC(C)(C)C1CCC(=O)CC21 (stereo not given) [NABILONE] |  | ED50 (Rattus norvegicus [12]): 0.38 mg/kg
21 | CC1(C)Oc2cc(C3(CCCCN=[N+]=[N-])CCC3)cc(O)c2[C@@H]2CC(=O)CC[C@H]21 | 11 | 
22 | CC1(C)Oc2cc(C3(CCCCN=C=S)CCC3)cc(O)c2[C@@H]2C[C@H](O)CC[C@H]21 | 1.45 | 
23 | CC1(C)Oc2cc(C3(CCCBr)CCC3)cc(O)c2[C@@H]2C[C@H](O)CC[C@H]21 | 8.75 | 
24 | CC1(C)Oc2cc(C3(CCCCC#N)CCC3)cc(O)c2[C@@H]2C[C@H](O)CC[C@H]21 | 0.55 | 
25 | CC1(C)Oc2cc(C3(CCCCCN=[N+]=[N-])CCC3)cc(O)c2[C@@H]2C[C@@H](O)CC[C@H]21 | 0.92 | 
26 | CC1(C)Oc2cc(C3(CCCCN=[N+]=[N-])CCC3)cc(O)c2[C@@H]2C[C@@H](O)CC[C@H]21 | 8.2 | 
27 | CC1(C)Oc2cc(C3(CCCCCC#N)CCC3)cc(O)c2[C@@H]2C[C@H](O)CC[C@H]21 | 0.69 | EC50 (Cannabinoid receptor 1 [2]): 3.9 nM; Emax [3]: 108%
28 | CC1(C)Oc2cc(C3(CCCCCCBr)CCC3)cc(O)c2[C@@H]2C[C@@H](O)CC[C@H]21 | 1 | 
29 | CC1(C)Oc2cc(C3(CCCC#N)CCC3)cc(O)c2[C@@H]2C[C@H](O)CC[C@H]21 | 4.6 | 

— ChEMBL document CHEMBL5154703, “Improved cyclobutyl nabilone analogs as potent CB1 receptor agonists” (Eur J Med Chem, 2022)
